This data set has as its system soybean plants containing event EE-GM5. Description: HPPD inhibitor herbicide tolerance field trials on plants with EE-GM5 (maximum phytotoxicity). Type of data set: in vivo, soybean (Glycine max). As to conditions: for tolerance of plants with EE-GM5 to the herbicide: field, different locations over 2 years, applied pre-emergence or post-emergence. As to the method:
Tolerance of plants comprising EE-GM5 to HPPD inhibitor herbicides was tested at different locations in the field over 2 years. […] All post-emergence treatments were at the V2-V3 stage, with adjuvants crop oil concentrate and ammonium sulfate added to increase herbicide activity.
The “maximum phytotoxicity” as used herein is the highest phytotoxicity rating recorded at any observation during the duration of a trial (with 3 to 4 observations per trial). In existing weed control applications, a normal (1×) dose for isoxaflutole (IFT) in pre- or post-emergence application and for MST in post-emergence application is 105 gr/ha, and a normal (1×) dose for mesotrione in pre-emergence application is 210 gr/ha.
Also, in several field trials across 2 years, soybean plants with event EE-GM5 had good tolerance towards experimental HPPD inhibitor compound 2-methyl-N-(5-methyl-1,3,4-oxadiazol-2-yl)-3-(methylsulfonyl)-4-(trifluoromethyl)benzamide (U.S. Pat. No. 9,101,141) when applied pre-emergence at 400 gr ai/ha or post-emergence at 200 gr ai/ha, respectively (the average maximum phytotoxicity value for each treatment was below 20%). […] All post-emergence treatments were at the V2-V3 stage, with adjuvants crop oil concentrate and ammonium sulfate added to increase herbicide activity.
Also, plants with EE-GM5 when treated post-emergent (V2-V3) with topramezone at 36 g ai/ha (+COC and AMS) in 2 field trials in the US gave an average maximum phytotoxicity of 11%, showing EE-GM5 also confers good tolerance to this HPPD inhibitor.

Structures are written as SMILES.

For the compound `CSc1c(C(F)(F)F)ccc(C(=O)Nc2nnnn2C)c1Cl` [2-chloro-3-(methylsulfanyl)-N-(1-methyl-1H-tetrazol-5-yl)-4-(trifluoromethyl)benzamide], the average maximum phytotoxicity is, setting by setting: (3rd year, EE-GM5 in Thorne background, 150 g/ha post-emergence, 3 field trial locations) 13.3%; (several field trials across 2 years, post-emergence (V2-V3) at 100-150 gr ai/ha) 20%.

For the compound `Cc1nnc(NC(=O)c2ccc(C(F)(F)F)c(S(C)(=O)=O)c2C)o1` [2-methyl-N-(5-methyl-1,3,4-oxadiazol-2-yl)-3-(methylsulfonyl)-4-(trifluoromethyl)benzamide], the “average maximum phytotoxicity value” runs as follows: (several field trials across 2 years, post-emergence (V2-V3) at 200 gr ai/ha) “below 20%”; (several field trials across 2 years, pre-emergence at 400 gr ai/ha) “below 20%”.

Consider `CS(=O)(=O)c1cc(C(F)(F)F)ccc1C(=O)c1cnoc1C1CC1` [isoxaflutole, (5-cyclopropyl-4-isoxazolyl)[2-(methylsulfonyl)-4-(trifluoromethyl)phenyl]methanone], for which the “tolerance of plants with EE-GM5 to the herbicide” value is given as “commercially relevant tolerance”. This compound came in with an average maximum phytotoxicity (3rd year, EE-GM5 in Thorne background, post-emergence V2-V3 stage at 210 g/ha, 4 locations) of 10.9%. For the setting “3rd year, EE-GM5 in Thorne background, pre-emergence at 410 g/ha, one field trial location”, this compound displayed a maximum phytotoxicity of 9%.

As to `CS(=O)(=O)c1ccc(C(=O)C2C(=O)CCCC2=O)c([N+](=O)[O-])c1` [mesotrione, 2-[4-(Methylsulfonyl)-2-nitrobenzoyl]cyclohexane-1,3-dione], the “tolerance of plants with EE-GM5 to the herbicide” value is listed as “commercially relevant tolerance”.

For the setting “post-emergent (V2-V3) at 36 g ai/ha (+COC and AMS), 2 field trials in the US”, `Cc1c(C(=O)c2cnn(C)c2O)ccc(S(C)(=O)=O)c1C1=NOCC1` [topramezone, [3-(4,5-dihydro-3-isoxazolyl)-2-methyl-4-(methylsulfonyl)phenyl](5-hydroxy-1-methyl-1H-pyrazol-4-yl)methanone] showed an average maximum phytotoxicity of 11%.

Values taken from patent US11555202B2, “Elite event EE-GM5 and methods and kits for identifying such event in biological samples” (priority 2016, dated 2023).
